Data taken from US8697694B2, “Substituted pyridine and pyrimidine derivatives and their use in treating viral infections” (priority 2008, dated 2014).
Like-named read-outs stand apart in the source and are kept apart here.

Tested on: HCV replicon cells
Assay: Cell-based HCV replicon assay (replicon RNA level by real time PCR, Taqman)
Details: Hepatitis C virus, 72 h, HCV replicon cells, read-out: EC90 (μM) range
Summary of the method: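 Readout: ΔCT between NS5B replicon RNA and GAPDH by real-time RT-PCR in lysates harvested on day 3, fitted sigmoidally; EC50 at ΔCT=1, EC90 at ΔCT=3.2. Compounds tested at ten 2-fold dilutions from 25 μM to 1 μM start, 10% FBS, 0.5% DMSO.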

[1] = harvested day 3, replicon RNA by real time PCR, reported as range class
[2] = replicon RNA level by real time PCR, harvested day 3
[3] = harvested on day 3, replicon RNA by real time PCR, calculated EC90 reported as range class
[4] = replicon RNA level by real time PCR (Taqman), harvested on day 3, calculated EC90 reported as range class
[5] = harvested day 3, replicon RNA by real time PCR, given as number

CC1(C)O[C@@H]2[C@@H](CO)C[C@@H](Nc3nc(N)nc(Cl)c3-c3nc4ccccc4s3)[C@@H]2O1 [Example 184]
EC90 [1]: < 0.5 µM

Cc1nc(NCC2CC2)nc(N[C@@H]2C[C@@H](C(C)O)[C@@H](O)[C@H]2O)c1-c1nc2cnccc2s1 (stereo partly shown) [Example 1650]
EC90 [2]: < 0.5 µM

C[C@H](Nc1nc(Cl)c(-c2nc3ccccc3s2)c(N[C@@H]2C[C@H](CO)[C@@H](O)[C@H]2O)n1)C(F)(F)F [Example 131]
EC90 [3]: < 0.5 µM

CC(=O)OCCNc1nc(C)c(-c2nc3ccccc3s2)c(N[C@@H]2C[C@H](CO)[C@@H](O)[C@H]2O)n1 [Example 211]
EC90 [1]: < 0.5 µM

Cc1nc(N(C)C)nc(N[C@@H]2C[C@H](CO)[C@@H](O)[C@H]2O)c1-c1nc2ccccc2s1 [Example 313]
EC90 [1]: < 0.5 µM

CCOC(=O)NCCNc1nc(C)c(-c2nc3ccccc3s2)c(N[C@@H]2C[C@H](CO)[C@@H](O)[C@H]2O)n1 [Example 256]
EC90 [3]: < 0.5 µM

CC1(C)O[C@@H]2[C@@H](CO)C[C@@H](Nc3nc(N)nc(Cl)c3-c3nc4ccc(OCc5ccccc5)cc4s3)[C@@H]2O1 [Example 198]
EC90 [1]: > 5 µM

Nc1nc(Cl)c(-c2nc3c(F)cc(F)cc3s2)c(N[C@@H]2C[C@H](CO)[C@@H](O)[C@H]2O)n1 [Example 189]
EC90 [1]: 0.5 to 5 µM

Cc1nc(NCc2ccc3[nH]cnc3c2)nc(N[C@@H]2C[C@H](CO)[C@@H](O)[C@H]2O)c1-c1nc2ccccc2s1 [Example 1912]
EC90 [2]: < 0.5 µM

CCCc1nccc2sc(-c3c(C)nc(N[C@H](C)c4ccc(C)cc4)nc3N[C@@H]3C[C@H](CO)[C@@H](O)[C@H]3O)nc12 [Example 1371]
EC90 [2]: < 0.5 µM

COc1cc(CNc2nc(CF)c(-c3nc4ccccc4s3)c(N[C@@H]3C[C@H](CO)[C@@H](O)[C@H]3O)n2)cc(OC)c1 [Example 1121]
EC90 [4]: 0.5 to 5 µM

Cc1nc(OCC(F)(F)F)nc(N[C@@H]2C[C@H](CO)[C@@H](O)[C@H]2O)c1-c1nc2ccccc2s1 [Example 1057]
EC90 [4]: > 5 µM

CO[C@H](C)CNc1nc(Cl)c(-c2nc3ccccc3s2)c(N[C@@H]2C[C@H](CO)[C@@H](O)[C@H]2O)n1 [Example 230]
EC90 [3]: < 0.5 µM

CCCc1nccc2sc(-c3c(C)nc(N[C@H](C)C4CC4)nc3N[C@@H]3C[C@H](CNC(=O)OC)[C@@H](O)[C@H]3O)nc12 [Example 1388]
EC90 [2]: < 0.5 µM

Cc1nc(N[C@H](C)c2ccc(-n3cccn3)cc2)nc(N[C@@H]2C[C@H](CO)[C@@H](O)[C@H]2O)c1-c1nc2ccccc2s1 [Example 1365]
EC90 [2]: < 0.5 µM

Cc1nc(N[C@H](C)C2CC2)nc(N[C@@H]2C[C@H](CO)[C@@H](O)[C@H]2O)c1-c1nc2c(CC(C)C)nccc2s1 [Example 1373]
EC90 [2]: < 0.5 µM

Cc1nc(NCc2cc3cnn(C(=O)OC(C)(C)C)c3cc2F)nc(N[C@@H]2C[C@H](CO)[C@H]3OC(C)(C)O[C@H]32)c1-c1nc2ccccc2s1 [Example 1908]
EC90 [2]: 0.5 to 5 µM

Cc1nc(NCC(O)c2ccccc2)nc(N[C@@H]2C[C@H](CO)[C@@H](O)[C@H]2O)c1-c1nc2ccccc2s1 (stereo partly shown) [Example 1919]
EC90 (replicon RNA level by real time PCR (Taqman), day 3, calculated EC90): 0.5 to 5 µM

Cc1cc2cc(-c3c(Cl)nc(N)nc3N[C@@H]3C[C@H](CO)[C@@H](O)[C@H]3O)oc2cn1 [Example 306]
EC90 [1]: < 0.5 µM

Cc1csc(CNc2nc(C)c(-c3nc4ccccc4s3)c(N[C@@H]3C[C@H](CO)[C@@H](O)[C@H]3O)n2)c1 [Example 480]
EC90 [3]: < 0.5 µM

CCc1cc2cc(-c3c(C)nc(NCc4ccccn4)nc3N[C@@H]3C[C@H](CO)[C@@H](O)[C@H]3O)oc2cn1 [Example 344]
EC90 [3]: < 0.5 µM

CCOc1cc2cc(-c3c(C)nc(N[C@H](C)C4CC4)nc3N[C@@H]3C[C@H](CO)[C@@H](O)[C@H]3O)oc2c(C)n1 [Example 41]
EC90 [5]: 0.2 µM

OC[C@H]1C[C@@H](Nc2nc(NCc3cccc(F)c3)nc(Cl)c2-c2nc3ccccc3s2)[C@H](O)[C@@H]1O [Example 234]
EC90 [3]: < 0.5 µM

COCCCCNc1nc(C)c(-c2nc3cnccc3s2)c(N[C@@H]2C[C@H](CO)[C@@H](O)[C@H]2O)n1 [Example 1050]
EC90 [4]: < 0.5 µM

Cc1nc(NC(C)c2ccco2)nc(N[C@@H]2C[C@H](CO)[C@@H](O)[C@H]2O)c1-c1nc2ccccc2s1 (stereo partly shown) [Example 1102]
EC90 [4]: 0.5 to 5 µM

CCCc1nccc2sc(-c3c(C)nc(N[C@H](C)C4CC4)nc3N[C@@H]3C[C@H](CN(C)S(C)(=O)=O)[C@@H](O)[C@H]3O)nc12 [Example 1389]
EC90 [2]: < 0.5 µM

CN(C)c1nc(Cl)c(-c2nc3ccccc3o2)c(N[C@@H]2C[C@H](CO)[C@@H](O)[C@H]2O)n1 [Example 117]
EC90 [1]: 0.5 to 5 µM

Cc1nc(NCC2CC2)nc(N[C@@H]2C[C@H](CO)[C@@H](S(C)(=O)=O)[C@H]2O)c1-c1nc2ccccc2s1 [Example 1136]
EC90 [4]: 0.5 to 5 µM

Cc1nc(NCC(F)(F)F)nc(N[C@@H]2C[C@H](CO)[C@@H](O)[C@H]2O)c1-c1nc2ccccc2o1 [Example 1509]
EC90 [2]: < 0.5 µM

CCCOc1cc2cc(-c3c(C)nc(NCC4CC4)nc3N[C@@H]3C[C@H](CO)[C@@H](O)[C@H]3O)oc2c(C)n1 [Example 38]
EC90 [5]: 0.25 µM

Cc1cc2cc(-c3c(Cl)nc(NCC(F)(F)F)nc3N[C@@H]3C[C@H](CO)[C@@H](O)[C@H]3O)oc2c(C)n1 [Example 456]
EC90 [3]: < 0.5 µM

COc1ccc2nc(-c3c(Cl)nc(N)nc3N[C@@H]3C[C@H](CO)[C@@H](O)[C@H]3O)sc2c1 [Example 181]
EC90 [1]: < 0.5 µM

Cc1nc(NCC(F)(F)F)nc(N[C@@H]2C[C@H](Cn3ccnn3)[C@@H](O)[C@H]2O)c1-c1nc2ccccc2s1 [Example 1538]
EC90 [2]: < 0.5 µM

Cc1ccc2oc(-c3c(Cl)nc(N)nc3N[C@@H]3C[C@H](CO)[C@H]4OC(C)(C)O[C@H]43)nc2c1 [Example 192]
EC90 [1]: > 5 µM

Nc1nc(Cl)c(-c2nc3c(Cl)cccc3s2)c(N[C@@H]2C[C@H](CO)[C@@H](O)[C@H]2O)n1 [Example 183]
EC90 [1]: 0.5 to 5 µM

CCc1cc2cc(-c3c(Cl)nc(NCCOC)nc3N[C@@H]3C[C@H](CO)[C@@H](O)[C@H]3O)oc2cn1 [Example 501]
EC90 [3]: < 0.5 µM

OC[C@H]1C[C@@H](Nc2nc(NCC(F)(F)F)nc(C3CC3)c2-c2nc3ccccc3s2)[C@H](O)[C@@H]1O [Example 128]
EC90 [3]: > 5 µM

[2H]C([2H])(Nc1nc(C)c(-c2nc3ccccc3s2)c(N[C@@H]2C[C@H](CO)[C@@H](O)[C@H]2O)n1)c1ccccc1 [Example 1245]
EC90 [4]: < 0.5 µM

COCCCNc1nc(Cl)c(-c2nc3ccccc3s2)c(N[C@@H]2C[C@H](CO)[C@@H](O)[C@H]2O)n1 [Example 222]
EC90 [1]: < 0.5 µM

Cc1nc(NCC2CC2)nc(N[C@@H]2C[C@H](CO)[C@@H](O)[C@H]2O)c1-c1nc2cnccc2s1 [Example 523]
EC90 [3]: < 0.5 µM

COc1ccc(Nc2nc(C)c(-c3nc4ccccc4s3)c(N[C@@H]3C[C@H](CO)[C@@H](O)[C@H]3O)n2)c(OC)c1 [Example 1235]
EC90 [4]: 0.5 to 5 µM

CCCc1nccc2sc(-c3c(C)nc(N[C@H](C)C4CC4)nc3N[C@@H]3C[C@H](CO)[C@@H](O)[C@H]3O)nc12 [Example 1346]
EC90 [2]: < 0.5 µM

Cc1nc(N(C)CC(F)(F)F)nc(N[C@@H]2C[C@H](CN(C)S(C)(=O)=O)[C@@H](O)[C@H]2O)c1-c1nc2ccccc2s1 [Example 1378]
EC90 [2]: > 5 µM

Cc1nc(NCc2cccs2)nc(N2CCC[C@H]2CO)c1-c1nc2ccccc2s1 [Example 1224]
EC90 [4]: > 5 µM

Cc1nc(NCC2CC2)nc(N[C@@H]2C[C@H](C(C)O)[C@@H](O)[C@H]2O)c1-c1nc2cnccc2s1 (stereo partly shown) [Example 1641]
EC90 [2]: < 0.5 µM

Cc1ccc(CNc2nc(C)c(-c3nc4ccccc4s3)c(N[C@@H]3C[C@H](CO)[C@H]4OC(C)(C)O[C@H]43)n2)cc1 [Example 489]
EC90 [3]: 0.5 to 5 µM

Nc1nc(Cl)c(-c2ncco2)c(N[C@@H]2C[C@H](CO)[C@@H](O)[C@H]2O)n1 [Example 106]
EC90 [1]: > 5 µM

CCc1cc2cc(-c3c(Cl)nc(NC(C)C)nc3N[C@@H]3C[C@H](CO)[C@@H](O)[C@H]3O)oc2cn1 [Example 502]
EC90 [3]: < 0.5 µM

Cc1nc(NCC2CC2)nc(N[C@@H]2C[C@H](CO)[C@@H](O)[C@H]2O)c1-c1nc2c(OCC3CC3)nccc2s1 [Example 1338]
EC90 [2]: < 0.5 µM

CC(C)OCCNc1nc(Cl)c(-c2nc3ccccc3s2)c(N[C@@H]2C[C@H](CO)[C@@H](O)[C@H]2O)n1 [Example 219]
EC90 [1]: < 0.5 µM

CC(=O)c1ccc(-c2c(Cl)nc(N)nc2N[C@@H]2C[C@H](CO)[C@@H](O)[C@H]2O)s1 [Example 154]
EC90 [1]: > 5 µM

OC[C@H]1C[C@@H](Nc2nc(NCC3CCCCC3)nc(Cl)c2-c2nc3ccccc3s2)[C@H](O)[C@@H]1O [Example 322]
EC90 [3]: < 0.5 µM

CCOCCNc1nc(C)c(-c2nc3cc(OC(F)F)c(OC(F)F)cc3s2)c(N[C@@H]2C[C@H](CO)[C@@H](O)[C@H]2O)n1 [Example 1002]
EC90 [4]: 0.5 to 5 µM

CCO[C@@H]1[C@H](O)[C@@H](CO)C[C@H]1Nc1nc(NCC(F)(F)F)nc(C)c1-c1nc2ccccc2s1 [Example 1352]
EC90 [2]: < 0.5 µM

CCc1cc2cc(-c3c(Cl)nc(NCC(F)(F)F)nc3N[C@@H]3C[C@H](CO)[C@@H](O)[C@H]3O)oc2cn1 [Example 516]
EC90 [3]: < 0.5 µM

Cc1ccc([C@@H](C)Nc2nc(C)c(-c3nc4c(C)nccc4s3)c(N[C@@H]3C[C@H](CO)[C@@H](O)[C@H]3O)n2)cc1F [Example 1358]
EC90 [2]: < 0.5 µM

Cc1nc(NCC(F)(F)F)nc(N[C@@H]2CC[C@@H](O)C2)c1-c1nc2ccccc2s1 [Example 54]
EC90 [5]: 1 µM

Nc1nc(Cl)c(-c2nc3cc(C(F)(F)F)ccc3s2)c(N[C@@H]2C[C@H](CO)[C@@H](O)[C@H]2O)n1 [Example 112]
EC90 [1]: 0.5 to 5 µM
